Results reported in patent US7655453B2, “Recombinant Candida rugosa lipases” (Academia Sinica, priority 2001, dated 2010).

How the values were obtained:
Type in all cases: biochemical
[1] = system: Candida rugosa lipase 4 chimera Trx-LIP4/lid5 (lid region residues 63-94 of LIP4 exchanged with that of LIP5; thioredoxin fusion); experiment: Kinetic parameters of hydrolysis of cholesteryl linoleate by Trx-LIP4/lid5; details: 37° C., pH 7.0; Trx-LIP4/lid5 66 nM; average of three independent experiments
Source text: (§1) Construction of expression vectors The E. coli expression vectors pET23a-LIP4-S19 and pET23a-trx-LIP4-S19 were constructed as described in Tang et al. (2000) Protein Exp. Purif. 20: 308-313. Open-reading frames of LIP1, LIP2, LIP3, and LIP5 without the leader sequence were obtained by reverse transcription-polymerase chain reaction (RT-PCR). See Longhi et al. (1992) Biochim. Biophy. […] The chimeric DNA sequences were constructed by replacing the SphI(184)-BstXI(304) restriction DNA fragment of LIP4 with the corresponding fragments of LIP1, LIP2, LIP3, or LIP5, respectively. The resulting sequences encode mature chimeric C. rugosa lipases, denoted as TrX-LIP4/lid1, TrX-LIP4/lid2, TrX-LIP4/lid3, and TrX-LIP4/lid5, and were confirmed by DNA sequencing.
(§2) Preparation of recombinant LIP4 from E. coli. E. coli strain AD494(DE3) (Novagen, Milwaukee, Wis.) harboring recombinant plasmid was grown overnight at 37° C. in Luria-Bertani (LB) broth supplemented with 50 μg/mL ampicillin and 15 μg/mL kanamycin. The cells were then diluted 20-fold into fresh medium and incubated with shaking at 25° C. After adding IPTG to give a final concentration of 0.05 mM, the cells were incubated at 10° C. until OD600 reached 1.0.
(§3) Purification of recombinant LIP4. After induction, the AD494(DE3) transformants were harvested by centrifugation at 4000 g and 4° C. for 10 min. […]

[2] = system: Candida rugosa lipase 4 chimera Trx-LIP4/lid3 (lid region residues 63-94 of LIP4 exchanged with that of LIP3; thioredoxin fusion); experiment: Kinetic parameters of hydrolysis of cholesteryl linoleate by Trx-LIP4/lid3; details: 37° C., pH 7.0; Trx-LIP4/lid3 58 nM; average of three independent experiments
Source text: as §1, §2, §3

[3] = biological target: Candida rugosa lipase 4 (LIP4), native, recombinant (Diutina rugosa, UniProt P32948); experiment: Kinetic parameters of hydrolysis of cholesteryl linoleate by LIP4; details: 37° C., pH 7.0; LIP4 39 nM; average of three independent experiments
Chain of Candida rugosa lipase 4 (LIP4), native, recombinant (P32948 3-549, looked up, natural form): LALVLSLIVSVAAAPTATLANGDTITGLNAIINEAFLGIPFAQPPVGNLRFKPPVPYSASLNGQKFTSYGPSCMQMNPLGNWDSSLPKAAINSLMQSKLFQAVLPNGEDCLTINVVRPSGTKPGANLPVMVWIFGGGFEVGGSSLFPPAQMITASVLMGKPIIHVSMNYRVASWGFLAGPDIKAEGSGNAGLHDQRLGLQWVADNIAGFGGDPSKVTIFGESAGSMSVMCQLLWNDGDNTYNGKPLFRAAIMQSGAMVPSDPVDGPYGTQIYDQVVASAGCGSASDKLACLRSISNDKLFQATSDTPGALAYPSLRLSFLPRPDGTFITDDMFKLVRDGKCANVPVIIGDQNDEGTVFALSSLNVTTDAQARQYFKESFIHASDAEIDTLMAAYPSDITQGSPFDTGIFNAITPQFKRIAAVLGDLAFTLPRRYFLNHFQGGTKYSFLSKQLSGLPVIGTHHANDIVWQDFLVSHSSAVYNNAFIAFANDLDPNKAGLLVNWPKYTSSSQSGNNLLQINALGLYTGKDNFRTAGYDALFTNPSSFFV
Source text: as §1, §2, §3

[4] = system: Candida rugosa lipase 4 chimera Trx-LIP4/lid2 (lid region residues 63-94 of LIP4 exchanged with that of LIP2; thioredoxin fusion); experiment: Kinetic parameters of hydrolysis of cholesteryl linoleate by Trx-LIP4/lid2; details: 37° C., pH 7.0; Trx-LIP4/lid2 86 nM; average of three independent experiments
Source text: as §1, §2, §3

[5] = system: Candida rugosa lipase 4 chimera Trx-LIP4/lid1 (lid region residues 63-94 of LIP4 exchanged with that of LIP1; thioredoxin fusion); experiment: Kinetic parameters of hydrolysis of cholesteryl linoleate by Trx-LIP4/lid1; details: 37° C., pH 7.0; Trx-LIP4/lid1 11 nM; average of three independent experiments
Source text: as §1, §2, §3

CCCCC/C=C\C/C=C\CCCCCCCC(=O)O[C@H]1CC[C@@]2(C)C(=CC[C@H]3[C@@H]4CC[C@H]([C@H](C)CCCC(C)C)[C@@]4(C)CC[C@@H]32)C1 [cholesteryl linoleate]
Km [1]: 34 ± 1 µM | Vmax [1]: 70 ± 4.8 10^−3 μmol/min/mg | Km [2]: 46 ± 1 µM | Vmax [2]: 231 ± 14 10^−3 μmol/min/mg | Km [3]: 41 ± 5 µM | Km [4]: 74 ± 3 µM | Vmax [4]: 1851 ± 24 10^−3 μmol/min/mg | Km [5]: 103 ± 5 µM | Vmax [5]: 28 ± 1 10^−3 μmol/min/mg
